This is an account of results in US9656960B2, “Inhibitors of microsomal triglyceride transfer protein and apo-B secretion” (Surface Logix, Inc., priority 2005, dated 2017).

Series [1] concerns Apo-B. In words: Apo-B secretion assay in HepG2 cells (ELISA). It is filed as cell-based. The settings on record: Homo sapiens, 24 hour incubation, ELISA of growth media. As for the experimental part:
A test compound is considered to be active if it is active in any of the following screens. The activity of a compound according to the invention can be assessed by measuring inhibition of apo B secretion in HepG2 cells.
(§1) The following protocol is written for HepG2 cells types, but the same or similar protocol may be used with other cell types, such as Caco-2 cells.
(§2) HepG2 cells were grown in MEM Eagle's medium containing 10% fetal bovine serum with 1% penicillin/streptomycin in an incubator (5% CO2, 100% relative humidity, 37° C.). At ca. 85% confluency, the cells were treated with test compounds (0.2% DMSO) at appropriate concentrations in triplicate. After 24 hour incubation with the test compounds, growth media were collected from each sample. Concentrations for apo-B and apoA1 were determined using ELISA. Mouse anti-human Apo-B and ApoA1 antibody and Alk-phos conjugated secondary antibody (goat) was used in ELISA. Triplicate data in six half-log concentrations were used to calculate an IC50 value for each compound.
In general terms: ELISA stands for enzyme-linked immunosorbent assay.

For series [2], the system named is ApoA1. The series is described as follows: ApoA1 secretion assay in HepG2 cells (ELISA). It is filed as cell-based. The note with it: Homo sapiens, 24 hour incubation, ELISA of growth media. As for the experimental part:
as §1, §2

For series [3], the system named is Apo-B. In words: Apo-B secretion assay in Caco-2 cells (ELISA). The format is cell-based. The settings on record: Homo sapiens. As to the method:
as §1, §2

The test system of series [4] is ApoA1. The series is described as follows: ApoA1 secretion assay in Caco-2 cells (ELISA). The settings on record: Homo sapiens. The format is cell-based. As for the experimental part:
as §1, §2

Series [5] concerns Caco-2. The series is described as follows: Bidirectional Caco-2 permeability assay. The format is in vitro ADME. The settings on record: bidirectional Caco-2 assay, analysis by fluorescence and HPLC. As to the method:
The following table (Table 1) depicts the activity of several compounds of Formula I or II according to the present invention. Permeability was measured in a bidirectional Caco-2 assay with analysis by fluorescence and HPLC.
In general terms: Caco-2 monolayers are a common model of the intestinal barrier.

Structures are written as SMILES.

What is called IC50 is the concentration that gives 50% inhibition. Lower therefore signals greater potency in that assay.

For the compound `O=C(Nc1ccc2c(c1)CCN(C(=S)NCc1ccccc1)C2)c1ccccc1-c1ccc(C(F)(F)F)cc1` [Compound 10], the IC50 in series [1] was 3 nM; in series [2], greater than 30000 nM; in series [3] it was 40 nM; in series [4], greater than 30000 nM. Besides, the “Caco-2 (10-6 cm/sec)” value in series [5] is on record as 0 10-6 cm/sec.
Regarding `COc1cccc(C(=O)Nc2ccc3c(c2)CCN(C(=O)Oc2ccccc2)C3)c1-c1ccc(C(F)(F)F)cc1` [Compound 11], the IC50 was 1.6 nM in series [1], greater than 30000 nM in series [2], 7.7 nM in series [3] and greater than 30000 nM in series [4]. Besides, the “Caco-2 (10-6 cm/sec)” value in series [5] is 0 10-6 cm/sec.
Consider `O=C(Nc1ccc2c(c1)CCN(C(=O)OCc1ccccc1)C2)c1ccccc1-c1ccc(C(F)(F)F)cc1` [Compound 12], for which the IC50 in series [1] was 220 nM; in series [2] it was greater than 30000 nM; in series [3], 110 nM; in series [4], greater than 30000 nM. In addition, the “Caco-2 (10-6 cm/sec)” value in series [5] was 0 10-6 cm/sec.
With `COCCCNC(=S)N1CCc2cc(NC(=O)c3ccccc3-c3ccc(C(F)(F)F)cc3)ccc2C1` [Compound 13], the IC50 in series [1] was 30 nM; in series [2], greater than 30000 nM; in series [3], 15 nM; in series [4], greater than 30000 nM. In addition, the “Caco-2 (10-6 cm/sec)” value in series [5] is recorded as 30 10-6 cm/sec.
Turning to `COc1cccc(C(=O)Nc2ccc3c(c2)CCN(c2nc(-c4ccccc4)cs2)C3)c1-c1ccc(C(F)(F)F)cc1` [Compound 14], the IC50 in series [1] was 230 nM; in series [2], greater than 30000 nM; in series [3], 4400 nM; in series [4], greater than 30000 nM. Further, in series [5], the “Caco-2 (10-6 cm/sec)” value is reported as 0 10-6 cm/sec.
For the compound `COc1cccc(C(=O)Nc2ccc3c(c2)CCN(C(=O)OC(C)(C)C)C3)c1-c1ccc(C(F)(F)F)cc1` [Compound 15], the IC50 in series [1] is 6 nM; in series [2] it was greater than 30000 nM; in series [3], 60 nM; in series [4], greater than 30000 nM. In addition, the “Caco-2 (10-6 cm/sec)” value in series [5] is listed as 0 10-6 cm/sec.
Turning to `COc1cccc(C(=O)Nc2ccc3c(c2)CCN(C(=O)Oc2ccc(F)cc2)C3)c1-c1ccc(C(F)(F)F)cc1` [Compound 16], the 50% inhibitory concentration (IC50) in series [1] is 2.3 nM; in series [2] it was greater than 30000 nM; in series [3] it was 11 nM; in series [4] it was greater than 30000 nM. The “Caco-2 (10-6 cm/sec)” value in series [5] was 0 10-6 cm/sec.
Regarding `CC(C)Oc1cccc(C(=O)Nc2ccc3c(c2)CCN(C(=O)Oc2ccccc2)C3)c1-c1ccc(C(F)(F)F)cc1` [Compound 17], the IC50 in series [1] was 0.7 nM; in series [2] it was greater than 30000 nM; in series [3] it was 16 nM; in series [4] it was greater than 30000 nM. Besides, the “Caco-2 (10-6 cm/sec)” value in series [5] is listed as 0 10-6 cm/sec.
